Laboratory results published in patent publication US10584115B2, “Substituted pyridine and pyrazine BMI-1 inhibitors” (PTC Therapeutics, Inc., priority 2013, dated 2020).

Key:
Bmi-1 protein = test: Sandwich ELISA Assay (Bmi-1 protein level in HT-1080 cells after compound treatment); format: cell-based; conditions: Table 1, Bmi-1 sandwich ELISA, read-out: ELISA EC50 value for Bmi-1 protein
Summary of the method: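 HT-1080 cells exposed to compounds for 40–48 h at 37 °C (0.5% DMSO final), then lysed. Bmi-1 in lysates measured by sandwich ELISA (mouse monoclonal capture, rabbit anti-Bmi-1 detection, HRP anti-rabbit, TMB), read at OD450 with OD570 reference against a recombinant Bmi-1 standard curve (0–8000 pg/mL).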

EC50 (Bmi-1 protein) [nM] | melting point [°C] | SMILES
100 to 3000 | 176 to 178 | Cc1nc2ccc(F)cn2c1-c1cc(C#N)cc(Nc2ccccc2)n1 [compound 646, 2-(6-fluoro-2-methylimidazo[1,2-a]pyridin-3-yl)-6-(phenylamino)pyridine-4-carbonitrile]
10 to 100 | 148 to 151 | Cc1nc2ccc(F)cn2c1-c1cc(C#N)cc(Nc2ccc(Cl)cc2)n1 [compound 647, 2-[(4-chlorophenyl)amino]-6-(6-fluoro-2-methylimidazo[1,2-a]pyridin-3-yl)pyridine-4-carbonitrile]
1 to 10 | 185 to 188 | Cc1ccc(Nc2cc(C#N)cc(-c3c(C)nc4ccc(F)cn34)n2)cc1 [compound 648, 2-(6-fluoro-2-methylimidazo[1,2-a]pyridin-3-yl)-6-[(4-methylphenyl)amino}pyridine-4-carbonitrile]
1 to 10 | 190 to 192 | COc1ccc(Nc2cc(C#N)cc(-c3c(C)nc4ccc(F)cn34)n2)cc1 [compound 649, 2-(6-fluoro-2-methylimidazo[1,2-a]pyridin-3-yl)-6-[(4-methoxyphenyl)amino}pyridine-4-carbonitrile]
100 to 3000 | 247 to 250 | COc1cccc(Nc2cc(C#N)cc(-c3c(C)nc4ccc(F)cn34)n2)c1 [compound 650, 2-(6-fluoro-2-methylimidazo[1,2-a]pyridin-3-yl)-6-[(3-methoxyphenyl)amino}pyridine-4-carbonitrile]
